The source of these data is article PMC5109907, “Enhancing succinic acid biosynthesis in Escherichia coli by engineering its global transcription factor, catabolite repressor/activator (Cra)” (Scientific Reports, 2016).

For data set [1], the target named is T1, Cra (catabolite repressor/activator) (Escherichia coli, UniProt P0ACP1, R57K/A58G/G59Q/R60Q/S75H/D148I/R149I, form not given).
T1 construct: full-length, His6-tagged (tag encoded by the 3' primer, C-terminal), pET28a, expressed in E. coli BL21, Ni resin
Kind of data set: isothermal titration calorimetry, one-site fit. It counts as binding. The note with it: 25 °C; 15 μM protein, 50 mM FBP injected; Tang1541 mutant.

Data set [2] deals with T2, Cra (catabolite repressor/activator) (Escherichia coli, UniProt P0ACP1, R57K/A58T/G59N/R60Q/S75H/D148I/R149I, form not given).
T2 construct: full-length, His6-tagged (tag encoded by the 3' primer, C-terminal), pET28a, expressed in E. coli BL21, Ni resin
Kind of data set: isothermal titration calorimetry, one-site fit. It counts as binding. The note with it: 25 °C; 15 μM protein, 50 mM FBP injected; Tang1544 mutant.

The target of data set [3] is T3, Cra (catabolite repressor/activator) (Escherichia coli, UniProt P0ACP1).
T3 construct: full-length, His6-tagged (tag encoded by the 3' primer, C-terminal), pET28a, expressed in E. coli BL21, Ni resin
Put plainly: isothermal titration calorimetry, one-site fit. It counts as binding. To be noted: 25 °C; 15 μM protein, 50 mM FBP injected.

A further data set concerns the target Cra mutant (Tang1544) (Escherichia coli, UniProt P0ACP1 1-334, R57K;A58T;G59N;R60Q;S75H;D148I;R149I). Kind of data set: EMSA; no FBP; less free DNA than Tang1534; EMSA: 50 nM oligonucleotide mixture annealed in TE buffer, with or without 1 mM FBP, 15 min at 30 C, nondenaturing 10% polyacrylamide gel, ethidium bromide; binding salt and pH not stated. To be noted: protein: recombinant; tags: His6; chain copies: 2; label: none (ethidium bromide stain); blunt.

The target of the next data set is Cra wild type (Escherichia coli, UniProt P0ACP1 1-334). Kind of data set: EMSA; no FBP; EMSA: 50 nM oligonucleotide mixture annealed in TE buffer, with or without 1 mM FBP, 15 min at 30 C, nondenaturing 10% polyacrylamide gel, ethidium bromide; binding salt and pH not stated. To be noted: protein: recombinant; tags: His6; chain copies: 4; label: none (ethidium bromide stain); blunt.

With `O=P(O)(O)OC[C@H]1OC(O)(COP(=O)(O)O)[C@@H](O)[C@@H]1O` (some centres unmarked) [FBP, fructose-1,6-bisphosphate], the figures for the Kd in data set [1], in data set [2] and in data set [3] were 130 ± 37 nM, 95 ± 24 nM and 1400 nM, respectively.

B1: aceBAK 18-bp Cra site (dsDNA)
DNA 1: TCGTTAAGCGATTCAGCA
DNA 2: TGCTGAATCGCTTAACGA
Consider B1, for which the binding result with Cra mutant (Tang1544) and in the data set with Cra wild type was “binds” each time.
